The values that follow come from patent US7888527B2 (University of Virginia Patent Foundation, priority 2004, dated 2011).

Structures are written as SMILES.

One data set has as its target T1, human S1P4 receptor (Homo sapiens, UniProt O95977).
T1 construct: expressed in transfected cells; host or cells: HEK293T, transient transfection; membranes
T1 sequence (O95977 1-384): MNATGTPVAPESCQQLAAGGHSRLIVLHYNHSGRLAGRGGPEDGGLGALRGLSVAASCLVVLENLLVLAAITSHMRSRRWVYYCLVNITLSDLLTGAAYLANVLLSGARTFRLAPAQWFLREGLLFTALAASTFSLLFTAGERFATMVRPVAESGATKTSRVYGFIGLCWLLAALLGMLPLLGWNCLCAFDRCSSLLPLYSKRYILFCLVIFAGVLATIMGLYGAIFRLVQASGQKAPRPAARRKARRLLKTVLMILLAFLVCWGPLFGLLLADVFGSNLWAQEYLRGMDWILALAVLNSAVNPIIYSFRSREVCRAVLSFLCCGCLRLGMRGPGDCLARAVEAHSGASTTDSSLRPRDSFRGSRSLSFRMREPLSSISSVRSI
As to the kind of experiment: [γ-35S]GTP binding assay, HEK293T membranes. It counts as biochemical. Conditions: -log molar concentration giving 50% of maximal [γ-35S]GTP binding; ± S.E.M.; read-out: pEC50 S1P4 (converted). The source says:
(§1) The appropriate receptor plasmid DNA (encoding human S1P1, human S1P2, human S1P3, human S1P4, human S1P5, human LPA1, human LPA2 or human LPA3 receptors) is mixed with equal amounts of expression plasmids encoding human Gi2α (for S1P3, a mutated (C352F) rat Gi2α is used), cow β1, and cow γ2 proteins, and these DNAs are used to transfect monolayers of HEK293T cells (where ‘T’ indicates expression of the SV-40 virus large T antigen) using the calcium phosphate precipitate method (7). After about 60 hours, cells are harvested, membranes prepared, aliquoted, and stored at −70° C. until use (8).
(§2) The [γ-^35S]GTP binding assay is performed as described previously (8). Membranes containing 1-5 μg of protein are incubated in 0.1 ml of binding buffer (in mM: HEPES/50, NaCl/100, MgCl2/10, pH 7.5) containing 5 μg of saponin, 10 μM GDP, 0.1 nM [γ-^35S]GTP (1200 Ci/mmol), and indicated lipid(s) for 30 min at 30° C. and collected using a Brandel Cell Harvester (Gaithersburg, Md.). Samples are then analyzed for bound radionuclide.
(§3) Statistical Analysis. The EC50 and IC50 values for all dose response curves were determined by nonlinear regression analysis of all data using the Graphpad Prism© program. The error associated with the data collected is reported as the standard error of the mean (S.E.M).

The target of data set [1] is T2, human S1P3 receptor (Homo sapiens, UniProt Q99500). The data set can be described thus: Intracellular calcium mobilization, T24 cells transfected stably with human S1P3 receptor. It counts as cell-based. Details: expressed in transfected cells. Conditions: T24-S1P3 cells versus wild-type T24 cells. The procedure:
[…] monolayers are co-transfected with the human S1P1, S1P2, S1P3 receptor encoding DNAs and the pIRESpuro2 plasmid DNA (Clontech, San Jose, Calif.,) using either Lipofectamine 2000 (Invitrogen, Carlsbad, Calif.) or FuGENE 6 (Roche Applied Science, Indianapolis, Ind.). Clonal populations expressing the puromycin acetyltransferase gene are selected by addition of puromycin (Sigma-Aldrich, St. Louis, Mo.) to the culture media. T24 cells are grown in monolayers at 37° C. in a 5% CO2/95% air atmosphere in growth media consisting of: 95% DMEM/F-12 medium and 10% charcoal/dextran stripped FBS.
A FlexStation™ fluorimeter (Molecular Devices, Menlo Park, Calif.) was used to measure intracellular calcium in native T24 cells and T24 cells transfected stably with either human S1P2 or human S1P3 receptor DNA. Cells were seeded (˜50,000 cells/well) in 96-well, clear bottom black microplates (Corning Costar Corp.) and left overnight at 37° C. The cells were dye-loaded with 4 μM Fluo-4AM ester in a loading buffer (Hank's Balanced Salt Solution, […], containing 20 mM HEPES, 0.1% fatty acid free BSA, and 2.5 mM probenecid) for 30 minutes at 37° C. After washing cell monolayers three times with phosphate buffered saline, loading buffer was added and the cells exposed to sets of compounds for 3 minutes at 25° C. in the FlexStation™. In all cases, each concentration of every compound was tested in at least triplicate. […] The cells were washed with phosphate buffered saline and exposed to compounds immediately, as described above.
(§4) Briefly, nonlinear analysis of the best-fit line generated by plotting the negative log of the EC50 values obtained from agonist dose-response curves, in the absence and presence of varying concentrations of antagonist, was plotted against the concentration of antagonist to give the Kb value.
On the technique in general: Calcium flux is commonly read through the fluorescence of an indicator in the cells.

The target of data set [2] is T3, human S1P1 receptor (Homo sapiens, UniProt P21453). As to the kind of experiment: [γ-35S]GTP binding assay, HEK293T membranes (agonism and Schild antagonism). It counts as biochemical. Details: expressed in transfected cells; host or cells: HEK293T, transient transfection; membranes. Conditions: -log molar concentration giving 50% of maximal [γ-35S]GTP binding; ± S.E.M.; read-out: pEC50 S1P1 (converted).
T3 sequence (P21453 whole entry): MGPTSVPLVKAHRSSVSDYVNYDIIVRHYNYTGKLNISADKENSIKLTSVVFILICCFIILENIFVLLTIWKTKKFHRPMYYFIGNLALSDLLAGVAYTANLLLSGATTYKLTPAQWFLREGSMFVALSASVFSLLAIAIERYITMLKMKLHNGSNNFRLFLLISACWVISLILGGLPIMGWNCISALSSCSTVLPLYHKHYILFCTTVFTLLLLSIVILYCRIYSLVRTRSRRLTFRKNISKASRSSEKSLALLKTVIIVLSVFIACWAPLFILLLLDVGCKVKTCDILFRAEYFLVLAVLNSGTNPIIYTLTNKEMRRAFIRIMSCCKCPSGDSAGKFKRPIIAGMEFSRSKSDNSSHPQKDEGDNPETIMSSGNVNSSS
From the text: as §1, §2, §4, §3

Data set [3] addresses T2, human S1P3 receptor. The description is as above. Conditions: -log molar concentration giving 50% of maximal [γ-35S]GTP binding; ± S.E.M.; read-out: pEC50 S1P3 (converted). It counts as biochemical. Also noted: expressed in transfected cells; host or cells: HEK293T, transient transfection; membranes.
From the text: as §1, §2, §4, §3

In data set [4] the target is T3, human S1P1 receptor. The data set can be described thus: [32P]S1P binding assay, HEK293T membranes. Conditions: read-out: pKi S1P1 (converted). Also noted: expressed in transfected cells; host or cells: HEK293T, transient transfection; membranes. The procedure:
(§5) [^32P]-S1P was prepared by incubating sphingosine and [γ-^32P]ATP with cell lysate from HEK293T cells transiently transfected with human sphingosine kinase type 2 DNA. The 200 μl reaction contained 0.025 mM sphingosine, 1 mCi [γ-^32P]ATP (7000 Ci/mmol) and kinase buffer (in mM: Mg(C2H3O2)2 (in 50 mM Tris, pH 7.5)/10, NaF/10, and semicarbizide/2). The reaction was initiated by the addition of 20 μg of cell lysate and incubated at 37° C. for at least 30 minutes. […] The organic layer was isolated and the extraction procedure repeated two additional times with the remaining aqueous fraction. The combined organic fractions were dried under a stream of nitrogen gas and resuspended in aqueous 0.1% fatty acid free BSA.
(§6) Bound ligand was separated from free ligand by rapid filtration and analyzed in a liquid scintillation counter.
as §3

The target of data set [5] is T2, human S1P3 receptor. As to the kind of experiment: [32P]S1P binding assay, HEK293T membranes. Also noted: expressed in transfected cells; host or cells: HEK293T, transient transfection; membranes. The conditions noted are these: read-out: pKi S1P3 (converted). The procedure:
as §5, §6, §3

The nature of data set [6]: Metabolic stability in biologic systems (mouse). It counts as in vivo. Conditions: in a mouse.
The test system of the next data set is S1P receptors. The data set can be described thus: Antagonist properties (potency, S1P receptor type selectivity) compared with VPC23019.

T2 sequence (Q99500 whole entry): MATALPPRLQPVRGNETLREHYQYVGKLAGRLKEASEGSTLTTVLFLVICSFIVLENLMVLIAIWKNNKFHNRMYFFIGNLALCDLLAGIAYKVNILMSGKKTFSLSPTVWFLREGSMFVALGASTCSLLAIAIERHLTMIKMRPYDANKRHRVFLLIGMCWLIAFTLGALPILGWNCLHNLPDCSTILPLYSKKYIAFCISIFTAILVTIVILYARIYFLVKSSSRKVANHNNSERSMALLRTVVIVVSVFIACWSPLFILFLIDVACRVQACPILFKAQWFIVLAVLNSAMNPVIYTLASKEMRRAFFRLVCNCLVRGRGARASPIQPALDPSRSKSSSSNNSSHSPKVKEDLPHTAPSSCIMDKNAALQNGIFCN

As for `CCCCCCCCCCCCC/C=C/[C@@H](O)[C@@H](N)COP(=O)(O)O` [Compound S1P, Sphingosine 1-phosphate, reference compound], the EC50 is 155 nM at human S1P4 receptor, 4.07 nM at human S1P1 receptor [2] and 2.24 nM on human S1P3 receptor [3]. On human S1P3 receptor [1], the “Calcium mobilization by compound alone” value is reported as “dose-dependent calcium mobilization was observed”. For the same compound, the Ki is 1.1 nM on human S1P1 receptor [4] and 7.59 nM on human S1P3 receptor [5].
Turning to `CCCCCCCCc1cccc(NC(=O)[C@H](N)CCP(=O)(O)O)c1` [VPC44116], in data set [6], the “Metabolic stability in biologic systems” value is recorded as “at least 18 hours”. The “Antagonist properties (potency, S1P receptor type selectivity) versus VPC23019” value in the data set with S1P receptors is listed as “indistinguishable from VPC23019”.
